Reference: US12446584B2, “Termiticide composition and methods for treating termites” (ADAMA MAKHTESHIM LTD., priority 2013, dated 2025)
Read-outs that look alike come from different tables or passages of the source.

Tests used:
Format in all cases: in vivo
[1] = system: Eastern subterranean termites (Reticulitermes flavipes); experiment: Thin plate bioassay; settings: 0.05% solution
Method: (§1) A laboratory study was conducted, using recently collected R. flavipes and C. formosanus. Thin plate bioassays were assembled using 0.6 cm glass and 0.6 cm clear Lexan. A sheet of 20.3×66 cm glass was used for the bottom. Two pieces of 2.5×61 cm glass were laid along the long edges, and two pieces of […]. Each arena had 450 g of screened sand evenly applied, and moistened with deionized water to help hold it in place during construction of the arenas. Fisher brand tongue depressors, cut in half, were used as a food source for the termites, and placed at one end of the arena. Prior to adding the Lexan top sheets, 0.6 cm holes were drilled at one end, and three 0.6 cm treatment apertures were drilled equally spaced apart at the center line. One 8 cm Petri dish with a 0.6 cm hole drilled in the bottom was lined up with the hole at the end of the top sheet, and glued down. Glue was allowed to dry for 72 hours. Large binder clips were used to hold the arena together.
(§2) Termiticide solutions were prepared as follows: Fipronil 0.017%; Fipronil 0.03%; Imidacloprid 0.05%; Imi-Fip 0.067% (Imidacloprid 0.05%, Fipronil 0.017%); and Untreated Control (water only). Ten ml of each finished solution of termiticide were applied to each arena: each of the three treatment apertures received 3.3 ml of termiticide. The treatments were allowed to dry for 24 hours, and the treatment apertures were covered with a 2.5×7.5 cm microscope slide. In each Petri dish, 500 worker and 15 soldier termites were added, using either R. flavipes or C. formosanus. Each treatment was replicated four times. Data regarding distance tunneled and mortality were collected daily for eight days. Data was analyzed using Analysis of Variance (ANOVA) and means were separated by Tukey's HSD (Honest Significant Difference test (IBM SPSS v 19).

[2] = system: Formosan subterranean termites (Coptotermes formosanus); experiment: Thin plate bioassay; settings: 0.05% solution
Method: as §1, §2

[3] = system: Eastern Subterranean Reticulitermes flavipes termites; experiment: Transfer effects among nestmates (donor/recipient Petri dish arenas); settings: donors treated with 50 ppm; for mortality at 50 ppm: Reticulitermes flavipes
Method: (§3) The purpose of this study was to determine whether there is transference of […] among nestmates of subterranean termites. Arenas for this study consisted of a 15 cm Petri dish. […] Donor and untreated marked control termites were marked using RustOleum® Marking Paint, using methodology described by Keefer et al. 2012.
(§4) Two untreated soldier termites for each species were added to each arena to simulate colony dynamics. Post-treatment observations for mortality were made at 4 h and then daily through day 7.

[4] = system: Formosan Coptotermes formosanus termites; experiment: as above; settings: donors treated with 50 ppm; for mortality at 50 ppm: Coptotermes formosanus
Method: as §3, §4

[5] = 4 h, by treatment (all ratios), 4 h, read-out: Mean % mortality of donors and recipients
[6] = 4 h, donor:recipient ratio 1:19, 4 h, read-out: Mean total % mortality of donors and recipients
[7] = 4 h, donor:recipient ratio 5:15, 4 h, read-out: Mean total % mortality of donors and recipients
[8] = 4 h, donor:recipient ratio 10:10, 4 h, read-out: Mean total % mortality of donors and recipients
[9] = 4 h, donor:recipient ratio 15:5, 4 h, read-out: Mean total % mortality of donors and recipients
[10] = 24 h, by treatment (all ratios), 1 d, read-out: Mean % mortality of donors and recipients
[11] = 24 h, donor:recipient ratio 1:19, 1 d, read-out: Mean total % mortality of donors and recipients
[12] = 24 h, donor:recipient ratio 5:15, 1 d, read-out: Mean total % mortality of donors and recipients
[13] = 24 h, donor:recipient ratio 10:10, 1 d, read-out: Mean total % mortality of donors and recipients
[14] = 24 h, donor:recipient ratio 15:5, 1 d, read-out: Mean total % mortality of donors and recipients
[15] = 48 h, by treatment (all ratios), 2 d, read-out: Mean % mortality of donors and recipients
[16] = 48 h, donor:recipient ratio 1:19, 2 d, read-out: Mean total % mortality of donors and recipients
[17] = 48 h, donor:recipient ratio 5:15, 2 d, read-out: Mean total % mortality of donors and recipients
[18] = 48 h, donor:recipient ratio 10:10, 2 d, read-out: Mean total % mortality of donors and recipients
[19] = 48 h, donor:recipient ratio 15:5, 2 d, read-out: Mean total % mortality of donors and recipients
[20] = 72 h, by treatment (all ratios), 3 d, read-out: Mean % mortality of donors and recipients
[21] = 72 h, donor:recipient ratio 1:19, 3 d, read-out: Mean total % mortality of donors and recipients
[22] = 72 h, donor:recipient ratio 5:15, 3 d, read-out: Mean total % mortality of donors and recipients
[23] = 72 h, donor:recipient ratio 10:10, 3 d, read-out: Mean total % mortality of donors and recipients
[24] = 72 h, donor:recipient ratio 15:5, 3 d, read-out: Mean total % mortality of donors and recipients
[25] = 96 h, by treatment (all ratios), 4 d, read-out: Mean % mortality of donors and recipients
[26] = 96 h, donor:recipient ratio 1:19, 4 d, read-out: Mean total % mortality of donors and recipients
[27] = 96 h, donor:recipient ratio 5:15, 4 d, read-out: Mean total % mortality of donors and recipients
[28] = 96 h, donor:recipient ratio 10:10, 4 d, read-out: Mean total % mortality of donors and recipients
[29] = 96 h, donor:recipient ratio 15:5, 4 d, read-out: Mean total % mortality of donors and recipients
[30] = 120 h, by treatment (all ratios), 5 d, read-out: Mean % mortality of donors and recipients
[31] = 120 h, donor:recipient ratio 1:19, 5 d, read-out: Mean total % mortality of donors and recipients
[32] = 120 h, donor:recipient ratio 5:15, 5 d, read-out: Mean total % mortality of donors and recipients
[33] = 120 h, donor:recipient ratio 10:10, 5 d, read-out: Mean total % mortality of donors and recipients
[34] = 120 h, donor:recipient ratio 15:5, 5 d, read-out: Mean total % mortality of donors and recipients
[35] = 144 h, by treatment (all ratios), 6 d, read-out: Mean % mortality of donors and recipients
[36] = 144 h, donor:recipient ratio 1:19, 6 d, read-out: Mean total % mortality of donors and recipients
[37] = 144 h, donor:recipient ratio 5:15, 6 d, read-out: Mean total % mortality of donors and recipients
[38] = 144 h, donor:recipient ratio 10:10, 6 d, read-out: Mean total % mortality of donors and recipients
[39] = 144 h, donor:recipient ratio 15:5, 6 d, read-out: Mean total % mortality of donors and recipients
[40] = 168 h, by treatment (all ratios), 7 d, read-out: Mean % mortality of donors and recipients
[41] = 168 h, donor:recipient ratio 1:19, 7 d, read-out: Mean total % mortality of donors and recipients
[42] = 168 h, donor:recipient ratio 5:15, 7 d, read-out: Mean total % mortality of donors and recipients
[43] = 168 h, donor:recipient ratio 10:10, 7 d, read-out: Mean total % mortality of donors and recipients
[44] = 168 h, donor:recipient ratio 15:5, 7 d, read-out: Mean total % mortality of donors and recipients

O=[N+]([O-])NC1=NCCN1Cc1ccc(Cl)nc1 [Imidacloprid, N-[1-[(6-Chloro-3-pyridyl)methyl]-4,5-dihydroimidazol-2-yl]nitramide]
Mean % mortality ([1]; 1 day post-treatment): 6.35 a % | Mean % mortality ([1]; 2 days post-treatment): 12.00 b % | Mean % mortality ([1]; 3 days post-treatment): 75.00 a % | Mean % mortality ([1]; 4 days post-treatment): 80.00 a % | Mean % mortality ([1]; 5 days post-treatment): 80.00 c % | Mean % mortality ([1]; 6 days post-treatment): 100.00 a % | Mean % mortality ([1]; 7 days post-treatment): 100.00 a % | Mean % mortality ([1]; 8 days post-treatment): 100.00 a % | Mean % mortality ([2]; 1 day post-treatment): 0.80 a % | Mean % mortality ([2]; 2 days post-treatment): 5.30 b % | Mean % mortality ([2]; 3 days post-treatment): 23.25 a % | Mean % mortality ([2]; 4 days post-treatment): 30.00 a % | Mean % mortality ([2]; 5 days post-treatment): 55.00 a % | Mean % mortality ([2]; 6 days post-treatment): 88.75 b % | Mean % mortality ([2]; 7 days post-treatment): 100.00 a % | Mean % mortality ([2]; 8 days post-treatment): 100.00a % | mortality at 50 ppm [3, 5]: 27% | mortality at 50 ppm [3, 6]: 10% | mortality at 50 ppm [3, 7]: 21.2% | mortality at 50 ppm [3, 8]: 43.8% | mortality at 50 ppm [3, 9]: 33.8% | mortality at 50 ppm [3, 10]: 64.4% | mortality at 50 ppm [3, 11]: 30% | mortality at 50 ppm [3, 12]: 51.2% | mortality at 50 ppm [3, 13]: 80% | mortality at 50 ppm [3, 14]: 96.2% | mortality at 50 ppm [3, 15]: 64.4% | mortality at 50 ppm [3, 16]: 30% | mortality at 50 ppm [3, 17]: 51.2% | mortality at 50 ppm [3, 18]: 80% | mortality at 50 ppm [3, 19]: 96.2% | mortality at 50 ppm [3, 20]: 73.4% | mortality at 50 ppm [3, 21]: 33.8% | mortality at 50 ppm [3, 22]: 60% | mortality at 50 ppm [3, 23]: 100% | mortality at 50 ppm [3, 24]: 100% | mortality at 50 ppm [3, 25]: 73.4% | mortality at 50 ppm [3, 26]: 72.5% | mortality at 50 ppm [3, 27]: 71.2% | mortality at 50 ppm [3, 28]: 100% | mortality at 50 ppm [3, 29]: 100% | mortality at 50 ppm [3, 30]: 90.9% | mortality at 50 ppm [3, 31]: 76.2% | mortality at 50 ppm [3, 32]: 87.5% | mortality at 50 ppm [3, 33]: 100% | mortality at 50 ppm [3, 34]: 100% | mortality at 50 ppm [3, 35]: 98.4% | mortality at 50 ppm [3, 36]: 98.8% | mortality at 50 ppm [3, 37]: 95% | mortality at 50 ppm [3, 38]: 100% | mortality at 50 ppm [3, 39]: 100% | mortality at 50 ppm [3, 40]: 100% | mortality at 50 ppm [3, 41]: 100% | mortality at 50 ppm [3, 42]: 100% | mortality at 50 ppm [3, 43]: 100% | mortality at 50 ppm [3, 44]: 100% | Mean % mortality of donors and recipients ([3]; by treatment (all ratios), 4 h): 27.18 a % | mortality at 50 ppm [4, 5]: 9% | mortality at 50 ppm [4, 6]: 0% | mortality at 50 ppm [4, 7]: 3.75% | mortality at 50 ppm [4, 8]: 17.5% | mortality at 50 ppm [4, 9]: 17.5% | mortality at 50 ppm [4, 10]: 32.5% | mortality at 50 ppm [4, 11]: 1.25% | mortality at 50 ppm [4, 12]: 12.5% | mortality at 50 ppm [4, 13]: 85% | mortality at 50 ppm [4, 14]: 31.2% | mortality at 50 ppm [4, 15]: 52.5% | mortality at 50 ppm [4, 16]: 5% | mortality at 50 ppm [4, 17]: 22.5% | mortality at 50 ppm [4, 18]: 96.2% | mortality at 50 ppm [4, 19]: 86.2% | mortality at 50 ppm [4, 20]: 67.2% | mortality at 50 ppm [4, 21]: 33.8% | mortality at 50 ppm [4, 22]: 37.5% | mortality at 50 ppm [4, 23]: 100% | mortality at 50 ppm [4, 24]: 100% | mortality at 50 ppm [4, 25]: 76.2% | mortality at 50 ppm [4, 26]: 72.5% | mortality at 50 ppm [4, 27]: 55% | mortality at 50 ppm [4, 28]: 100% | mortality at 50 ppm [4, 29]: 100% | mortality at 50 ppm [4, 30]: 87.5% | mortality at 50 ppm [4, 31]: 82.5% | mortality at 50 ppm [4, 32]: 67.5% | mortality at 50 ppm [4, 33]: 100% | mortality at 50 ppm [4, 34]: 100% | mortality at 50 ppm [4, 35]: 96.2% | mortality at 50 ppm [4, 36]: 93.8% | mortality at 50 ppm [4, 37]: 91.2% | mortality at 50 ppm [4, 38]: 100% | mortality at 50 ppm [4, 39]: 100% | mortality at 50 ppm [4, 40]: 97% | mortality at 50 ppm [4, 41]: 95% | mortality at 50 ppm [4, 42]: 96.2% | mortality at 50 ppm [4, 43]: 100% | mortality at 50 ppm [4, 44]: 100% | Mean % mortality of donors and recipients ([4]; by treatment (all ratios), 4 h): 9.68 b % | Mean % mortality of donors and recipients ([4]; by treatment (all ratios), 7 d): 97.81 a %
